Laboratory results as given in ChEMBL document CHEMBL4765292, “Flexible diaminodihydrotriazine inhibitors of Plasmodium falciparum dihydrofolate reductase: Binding strengths, modes of binding and their antimalarial activities” (Eur J Med Chem, 2020).

Columns and labels:
[1] = Inhibition of Plasmodium falciparum DHFR N51I/C59R/S108N/I164L mutant expressed in Escherichia coli BL21 using DHF as substrate by spectrophotometric analysis
[2] = Inhibition of Plasmodium falciparum DHFR C59R/S108N/I164L mutant expressed in Escherichia coli BL21 using DHF as substrate by spectrophotometric analysis
[3] = Inhibition of Plasmodium falciparum DHFR […] mutant expressed in Escherichia coli BL21 using DHF as substrate by spectrophotometric analysis
[4] = system: Plasmodium falciparum; test: Antimalarial activity against Plasmodium falciparum TM4/8.2 infected in human erythrocytes assessed as reduction in [3H]-hypoxanthine incorporation pretreated for 20 hrs followed by [3H]-hypoxanthine addition measured after 20 hrs by radioactivity method; assay type: functional, organism-based
[5] = system: Plasmodium falciparum; test: Antimalarial activity against Plasmodium falciparum T9/94 RC17 harboring DHFR A16V/S108T mutant infected in human erythrocytes assessed as reduction in [3H]-hypoxanthine incorporation pretreated for 20 hrs followed by [3H]-hypoxanthine addition measured after 20 hrs by radioactivity method; assay type: functional, organism-based; settings: T9/94 RC17, Erythrocyte
[6] = Inhibition of Plasmodium falciparum DHFR A16V/S108T mutant expressed in Escherichia coli BL21 using DHF as substrate by spectrophotometric analysis
[7] = Inhibition of Plasmodium falciparum DHFR N51I/C59R/S108N mutant expressed in Escherichia coli BL21 using DHF as substrate by spectrophotometric analysis
[8] = system: Plasmodium falciparum; test: Antimalarial activity against Plasmodium falciparum W2 harboring DHFR N51I/C59R/S108N mutant infected in human erythrocytes assessed as reduction in [3H]-hypoxanthine incorporation pretreated for 20 hrs followed by [3H]-hypoxanthine addition measured after 20 hrs by radioactivity method; assay type: functional, organism-based; settings: W2, Erythrocyte
[9] = system: Plasmodium falciparum; test: Antimalarial activity against Plasmodium falciparum V1/S harboring DHFR N51I/C59R/S108N/I164L mutant infected in human erythrocytes assessed as reduction in [3H]-hypoxanthine incorporation pretreated for 20 hrs followed by [3H]-hypoxanthine addition measured after 20 hrs by radioactivity method; assay type: functional, organism-based; settings: Erythrocyte
[10] = Inhibition of Plasmodium falciparum DHFR expressed in Escherichia coli BL21 using DHF as substrate by spectrophotometric analysis
[11] = system: Plasmodium falciparum; test: Antimalarial activity against Plasmodium falciparum K1CB1 harboring DHFR […] mutant infected in human erythrocytes assessed as reduction in [3H]-hypoxanthine incorporation pretreated for 20 hrs followed by [3H]-hypoxanthine addition measured after 20 hrs by radioactivity method; assay type: functional, organism-based; settings: K1CB1, Erythrocyte
[12] = system: Plasmodium falciparum; test: Antimalarial activity against Plasmodium falciparum CsI-2 harboring DHFR C59R/S108N/I164L mutant infected in human erythrocytes assessed as reduction in [3H]-hypoxanthine incorporation pretreated for 20 hrs followed by [3H]-hypoxanthine addition measured after 20 hrs by radioactivity method; assay type: functional, organism-based; settings: CsI-2, Erythrocyte
[13] = system: Vero; test: Cytotoxicity against African green monkey Vero cells assessed as reduction in cell viability incubated for 72 hrs by SRB assay; assay type: cell-based; settings: Chlorocebus sabaeus
[14] = Therapeutic index, ratio of IC50 for African green monkey Vero cells to IC50 for Plasmodium falciparum K1CB1 harboring DHFR […] mutant; assay type: toxicity; settings: read-out: Ratio IC50
[15] = system: DHFR (human against Plasmodium falciparum DHFR N51I/C59R/S108N/I164L mutant); test: Selectivity index, ratio of Ki for human DHFR expressed in Escherichia coli BL21 to Ki for Plasmodium falciparum DHFR N51I/C59R/S108N/I164L mutant expressed in Escherichia coli BL21; assay type: toxicity; settings: read-out: Ratio Ki
[16] = system: DHFR (human against Plasmodium falciparum DHFR double mutant); test: Selectivity index, ratio of Ki for human DHFR expressed in Escherichia coli BL21 to Ki for Plasmodium falciparum DHFR double mutant expressed in Escherichia coli BL21; assay type: toxicity; settings: read-out: Ratio Ki
[17] = Therapeutic index, ratio of IC50 for African green monkey Vero cells to IC50 for Plasmodium falciparum TM4/8.2; assay type: toxicity; settings: against Plasmodium falciparum TM4/8.2, read-out: Ratio IC50
[18] = system: DHFR (human against Plasmodium falciparum DHFR); test: Selectivity index, ratio of Ki for human DHFR expressed in Escherichia coli BL21 to Ki for Plasmodium falciparum DHFR expressed in Escherichia coli BL21; assay type: toxicity; settings: read-out: Ratio Ki
[19] = Therapeutic index, ratio of IC50 for African green monkey Vero cells to IC50 for Plasmodium falciparum V1/S harboring DHFR N51I/C59R/S108N/I164L mutant; assay type: toxicity; settings: read-out: Ratio IC50

Structure (SMILES) | Ki [1] | Ki [2] | Ki [3] | IC50 [4] | IC50 [5] | Ki [6] | Ki [7] | IC50 [8] | IC50 [9] | Ki [10] | IC50 [11] | IC50 [12] | IC50 [13] | selectivity ratio [14] | selectivity ratio [15] | selectivity ratio [16] | selectivity ratio [17] | selectivity ratio [18] | selectivity ratio [19]
CC1(C)N=C(N)N=C(N)N1OCCCNS(=O)(=O)c1ccccc1 | 0.184 µM | 0.051 µM | 0.0043 µM | 0.051 µM | 2.2 µM | 0.061 µM | 0.01 µM | 15.2 µM | 61.9 µM | 0.0008 µM | 5.4 µM | 73.4 µM |  |  |  |  |  |  | 
CC1N=C(N)N=C(N)N1OCCCOc1ccc(Cl)cc1 (stereo unspecified) | 0.0018 µM | 0.0014 µM | 0.0007 µM | 0.03 µM |  | 0.0019 µM | 0.0009 µM | 0.12 µM | 0.82 µM | 0.0004 µM | 0.029 µM | 0.38 µM | > 50 µM | > 1720 | 64 | 166 | > 1670 | 290 | > 61
Cc1ccc(S(=O)(=O)NCCCON2C(N)=NC(N)=NC2(C)C)cc1 | 0.143 µM | 0.073 µM | 0.004 µM | 0.44 µM | 3.9 µM | 0.186 µM | 0.0075 µM | 15.1 µM | 23.5 µM | 0.001 µM | 9.6 µM | 31.2 µM |  |  |  |  |  |  | 
CC1(C)N=C(N)N=C(N)N1OCC(=O)NCc1ccc(Cl)cc1 | 0.0163 µM | 0.013 µM | 0.0036 µM | 2.4 µM | 0.43 µM | 0.0722 µM | 0.0043 µM | 2.5 µM | 11 µM | 0.0017 µM | 0.53 µM | 3.6 µM |  |  |  |  |  |  | 
CC1(C)N=C(N)N=C(N)N1OCCNS(=O)(=O)c1ccc(Cl)cc1 | 0.127 µM | 0.114 µM | 0.0047 µM | 1.2 µM | 3.8 µM | 0.133 µM | 0.0102 µM | 12.7 µM | > 50 µM | 0.0013 µM | 5.9 µM | 25.3 µM |  |  |  |  |  |  | 
Cc1ccc(S(=O)(=O)NCCON2C(N)=NC(N)=NC2(C)C)cc1 | 0.229 µM | 0.139 µM | 0.0064 µM | 2 µM | 18.7 µM | 0.308 µM | 0.0102 µM | 21.5 µM | 62.2 µM | 0.0018 µM | 9.7 µM | 63.3 µM |  |  |  |  |  |  | 
CC1(C)N=C(N)N=C(N)N1OCCNS(=O)(=O)c1ccc([N+](=O)[O-])cc1 | 0.235 µM | 0.229 µM | 0.00985 µM | 2.2 µM | 3.5 µM | 0.222 µM | 0.0179 µM | 3.6 µM | 3.5 µM | 0.0032 µM | 3.1 µM | 3.5 µM |  |  |  |  |  |  | 
CC1(C)N=C(N)N=C(N)N1OCCNS(=O)(=O)c1ccccc1 | 0.234 µM | 0.169 µM | 0.0048 µM | 4.4 µM | 15 µM | 0.215 µM | 0.0058 µM | 26 µM | 77.4 µM | 0.0027 µM | 10 µM | 76.5 µM |  |  |  |  |  |  | 
CC1(C)N=C(N)N=C(N)N1OCCCNC(=O)c1ccccc1 | 0.0138 µM | 0.0069 µM | 0.0026 µM | 0.029 µM | 0.04 µM | 0.0147 µM | 0.0026 µM | 0.23 µM | 5.4 µM | 0.0014 µM | 0.23 µM | 2.4 µM |  |  |  |  |  |  | 
CC1(C)N=C(N)N=C(N)N1OCC(=O)Nc1ccccc1 | 0.0178 µM | 0.0164 µM | 0.0052 µM | 1.9 µM | 5.2 µM | 0.131 µM | 0.0067 µM | 13.9 µM | 18.1 µM | 0.0037 µM | 7.2 µM | 17.1 µM |  |  |  |  |  |  | 
CC1N=C(N)N=C(N)N1OCCCOc1ccc(F)cc1Cl (stereo unspecified) | 0.0013 µM | 0.0016 µM | 0.0007 µM | 0.023 µM |  | 0.0018 µM | 0.0008 µM | 0.033 µM | 0.29 µM | 0.0004 µM | 0.0052 µM | 0.047 µM | > 50 µM | > 9620 | 70 | 131 | > 2170 | 229 | > 172
CC1N=C(N)N=C(N)N1OCCCOc1cccc(Cl)c1Cl (stereo unspecified) | 0.0012 µM | 0.0012 µM | 0.0006 µM | 0.0013 µM |  | 0.0018 µM | 0.0006 µM | 0.15 µM | 0.21 µM | 0.0004 µM | 0.0059 µM | 0.062 µM | 5.91 µM | 1000 | 16 | 33 | 4550 | 49 | 28
CC1(C)N=C(N)N=C(N)N1OCCCN(Cc1ccccc1)c1ccc(Cl)c(Cl)c1 | 0.0017 µM | 0.0027 µM | 0.0016 µM | 0.15 µM | 0.29 µM | 0.0053 µM | 0.0012 µM | 2.1 µM | 5.3 µM | 0.001 µM | 2.3 µM | 5 µM |  |  |  |  |  |  | 
CC1(C)N=C(N)N=C(N)N1OCC(=O)Nc1ccc(Cl)cc1 | 0.0097 µM | 0.0088 µM | 0.0038 µM | 3 µM | 5 µM | 0.0568 µM | 0.004 µM | 3.7 µM | 16.7 µM | 0.0023 µM | 4 µM | 7.9 µM |  |  |  |  |  |  | 
CC1(C)N=C(N)N=C(N)N1OCCCN(Cc1ccccc1)Cc1ccccc1 | 0.0054 µM | 0.0031 µM | 0.0029 µM | 0.022 µM | 0.025 µM | 0.0063 µM | 0.0031 µM | 0.5 µM | 5.4 µM | 0.0015 µM | 0.35 µM | 0.5 µM |  |  |  |  |  |  | 
CC1(C)NC(N)=NC(=N)N1OCCCCOc1ccccc1 | 0.002 µM | 0.0017 µM | 0.0013 µM | 0.0029 µM |  | 0.0032 µM | 0.0016 µM | 0.046 µM | 0.22 µM | 0.0008 µM | 0.033 µM | 0.22 µM | 9.8 µM | 297 | 23 | 35 | 3380 | 57 | 45
CC1(C)NC(N)=NC(=N)N1OCCc1ccccc1 | 0.017 µM | 0.012 µM | 0.002 µM | 0.03 µM |  | 0.0071 µM | 0.0029 µM | 0.24 µM | 0.72 µM | 0.0011 µM | 0.039 µM | 0.3 µM | 12 µM | 308 | 3 | 21 | 400 | 39 | 17
CC1(C)N=C(N)N=C(N)N1c1ccc(Cl)cc1 [CYCLOGUANIL] | 0.421 µM | 0.285 µM | 0.0432 µM | 0.037 µM | 3.7 µM | 1.31 µM | 0.0314 µM | 6.08 µM | > 100 µM | 0.0015 µM | 2.4 µM | 37.9 µM |  |  |  |  |  |  | 
